Assay results reported in patent US8642502B2, “Reversible gel-forming compositions for controlled delivery of bioactive substances” (TRGel, LLC, priority 2010, dated 2014).

Columns and labels:
[1] = Solubility of trans-stilbene oxide in water vs 10% copolymer solution (UV spectra); assay type: physicochemical; settings: in 10% solution of p-MDM/DGDM copolymer
Protocol: Solutions of trans-stilbene oxide were prepared in water and in a 10% solution of p-MDM/DGDM copolymer.

[2] = Solubility of DM monomers and polymers in solvents; assay type: physicochemical
Description: The DM monomers as prepared by the methods exemplified in Examples 1-5 above were converted to polymers by the anionic polymerization reaction as illustrated in Reaction Scheme A and the physical properties of homopolymers of differing monomers are presented in Table 1. With reference to Table 1 it should be noted that all of the resulting polymers have very low poly dispersity (Mw/Mn). […] Water-soluble polymers are particularly useful in biological applications such as surface protection from non-specific adsorption. The data also illustrates that the glass transition temperature (Tg) of polymers with alkyl substituents decreases as the alkyl chain length increases. […] The DM polymers wherein R=2-methoxyethyl and R=ethoxy-2-methoxyethyl show lower critical solution temperature (LCST) behavior.

SMILES: c1ccc([C@@H]2O[C@H]2c2ccccc2)cc1 (relative stereo) [trans-stilbene oxide]
- solubility relative to solubility in water [1]: improved

SMILES: CCCCCCCCCCO[C@H]1[C@@H]2O[C@@H]2[C@@H]2OC[C@H]1O2 [DDM, 1,6:2,3-dianhydro-4-O-decyl-β-D-mannopyranose]
- solubility (in words) [2]: soluble in hexane

SMILES: COCCOC1C2COC(O2)C2OC12 [MEDM, 1,6:2,3-dianhydro-4-O-(2-methoxyethyl)-β-D-mannopyranose]
- solubility (in words) [2]: soluble in water
